Reference: patent US20250051350A1, “Dihydroartemisinin derivatives and the treatment of fibrotic diseases” (GreenStone Biosciences, Inc., priority 2023, published 2025)
Values after ≈ are worked out from the molar mass of the structure shown. Like-named read-outs stand apart in the source and are kept apart here.

Assays:
[1] = Intravenous and oral pharmacokinetics in mice; assay type: in vivo; conditions: male C57BL/6J mice
Experimental: The intravenous (IV) and oral (PO) pharmacokinetics of the PT compounds were measured in 6-10 week-old male C57BL/6J mice, using three mice/group. The test compounds were formulated in an appropriate water-based vehicle to give a clear solution for IV administration, or a clear solution or uniform suspension for PO administration. Animals were dosed within 4 hours of the preparation of the formulations; with the dose volume being determined by the animal's body weight measured on the morning of the dosing day. Blood samples (about 25 μL per time point) were taken at 5 and 15 minutes and 1, 3, and 5 hours after dosing, into pre-chilled EDTA-K2 tubes and kept on wet ice until centrifugation. The tubes were centrifuged at 3200×g at about 4° C. for 10 minutes, and the plasma analyzed by LC-MS/MS.

[2] = test system: Induced pluripotent stem cell-derived cardiac fibroblasts (ACTA2-GFP); experiment: Antifibrotic effects in TGF-β-activated iPSC-derived cardiac fibroblasts (ACTA2-GFP fluorescence); assay type: cell-based; conditions: for antifibrotic efficacy in this model: TGF-β-activated iPSC-derived cardiac fibroblasts; for IC50: activated with TGF-β, simultaneous treatment, 48 hours, ACTA2-GFP fluorescence, read-out: IC50, reduction in fluorescence
Text: Induced pluripotent stem cell-derived cardiac fibroblasts were constructed containing a fusion of the alpha-smooth muscle actin to the green fluorescent protein (ACTA2-GFP) construct. ACTA2 is a myofibroblast marker, such that the fibroblasts fluoresce with an intensity dependent on the extent of fibrosis.

[3] = test system: MD2 signaling pathway (HEK Blue-TLR4 cells); experiment: HEK Blue-TLR4 assay (MD2 pathway); assay type: cell-based; conditions: 1 h preincubation, 10 ng/mL lipopolysaccharide, read after 20 hours at 655 nm
Experimental: HEK Blue-TLR4 cells were plated in detection media, preincubated with vehicle or PT-2, PT-14, or PT-30 dissolved in vehicle (with artesunate, DHA, and artemisinin comparators) for 1 h, then co-stimulated with 10 ng/mL lipopolysaccharide. Reporter activity was read after 20 hours at 655 nm in a spectrophotometer. The PT compounds were active in this assay, showing that they inhibit the MD2 signaling pathway.

Hygroscopicity of PT-30 = assay type: physicochemical; conditions: from 40% to 95% RH
Experimental: (§1) PT-30, DHA 5-oxo-2,6-diazaspiro[3.4]octane-2-carboxylate, (3R,5aS,6R,8aS,9R,12S,12aR)-decahydro-3,6,9-trimethyl-3,12-epoxy-12H-pyrano[4,3-j]-1,2-benzodioxepin-10-yl 5-oxo-2,6-diazaspiro[3.4]octane-2-carboxylate, was a white crystalline solid as prepared. […] PT-30 had low solubility (<0.1 mg/mL) in aqueous acidic conditions and in simulated gastric fluid, and a solubility of about 0.7 mg/mL in fasted-state and fed-state simulated intestinal fluids.

in vitro = in vitro ADME; conditions: for fraction unbound: plasma
Experimental: Plasma protein binding assays were conducted in triplicate for compounds PT-2, PT-14, PT-28, and PT-30, with artesunate, DHA, and warfarin as comparators.

[4] = test system: primary pulmonary fibroblasts; experiment: Antifibrotic efficacy in primary pulmonary fibroblasts; assay type: cell-based
[5] = Solid-state stability of PT-30; assay type: physicochemical
Experimental: as §1

Solubility of PT-30 = assay type: physicochemical
Experimental: as §1

[6] = test system: bleomycin injury mouse skin model; experiment: Bleomycin injury mouse skin model; assay type: in vivo; conditions: topical administration (50 μL, 100 μM in 0.1% DMSO/PBS)
[7] = test system: CCl4 injury mouse liver model; experiment: CCl4 injury mouse liver model; assay type: in vivo; conditions: oral administration

CNC(=O)C1(C)CN(C(=O)O[C@H]2O[C@@H]3O[C@@]4(C)CC[C@H]5[C@H](C)CC[C@@H]([C@H]2C)[C@@]35OO4)C1 [PT-28, DHA 3-methyl-3-(methylcarbamoyl)azetidine-1-carboxylate]
IV AUC0-last ([1]; IV, plasma): 4200 ng·h/mL
IV Clearance ([1]; IV, plasma): 38 mL/min/kg
IV T1/2 ([1]; IV, plasma): 14.4 min
IV VD,ss ([1]; IV, plasma): 0.8 L/kg
PO Bioavailability ([1]; PO): 112%
PO AUC0-last ([1]; PO, plasma): 48800 ng·h/mL
PO T1/2 ([1]; PO, plasma): 28.8 min
antifibrotic efficacy in this model [2]: demonstrated antifibrotic efficacy

CC1CCC2C(C)C(OC(=O)N(C)CCO)OC3OC4(C)CCC1C32OO4 (centres unmarked) [PT-20, DHA (2-hydroxyethyl)(methyl)carbamate]
IV AUC0-last ([1]; IV, plasma): 2400 ng·h/mL
IV Clearance ([1]; IV, plasma): 69 mL/min/kg
IV T1/2 ([1]; IV, plasma): 14.4 min
IV VD,ss ([1]; IV, plasma): 0.8 L/kg
PO Bioavailability ([1]; PO): 73%
PO AUC0-last ([1]; PO, plasma): 17700 ng·h/mL
PO T1/2 ([1]; PO, plasma): 31.8 min

C[C@@H]1CC[C@H]2[C@@H](C)C(OC(=O)N3CC4(CCNC4=O)C3)O[C@H]3O[C@@]4(C)CC[C@@H]1[C@]32OO4 (stereo partly drawn) [PT-30, (3R,5aS,6R,8aS,9R,12S,12aR)-decahydro-3,6,9-trimethyl-3,12-epoxy-12H-pyrano[4,3-j]-1,2-benzodioxepin-10-yl 5-oxo-2,6-diazaspiro[3.4]octane-2-carboxylate]
activity in HEK Blue-TLR4 reporter assay (inhibition of MD2 signaling pathway) [3]: active
bioavailability ([1]; mouse, plasma, PO): 73%
clearance ([1]; mouse, IV, plasma): 30 mL/min/kg
AUC(0-t) ([1]; mouse, IV, plasma, read-out: IV AUC0-last): 5300 ng·h/mL
half-life ([1]; mouse, IV, plasma, read-out: IV T1/2 (converted)): 13.2 min
Vd ([1]; mouse, IV, plasma, read-out: IV VD,ss): 0.6 L/kg
AUC(0-t) ([1]; mouse, PO, plasma, read-out: PO AUC0-last): 40900 ng·h/mL
half-life ([1]; mouse, PO, plasma, read-out: PO T1/2 (converted)): 20.4 min
hygroscopicity, water uptake (Hygroscopicity of PT-30): 0.5%
recovery (in vitro; human): 84.9%
fraction unbound (in vitro; human): 0.455
recovery (in vitro; mouse): 87.6%
fraction unbound (in vitro; mouse): 0.079
antifibrotic efficacy, effect on acta2, colla1, and CTGF [4]: demonstrated antifibrotic efficacy
chemical and crystal form stability ([5]; 25° C./60% RH for 1 week): chemically stable without crystal form change
chemical and crystal form stability ([5]; 40° C./75% RH for 1 week): chemically stable without crystal form change
solubility (Solubility of PT-30; aqueous acidic conditions, aqueous buffer): < 100 µg/mL
solubility in organic solvents (Solubility of PT-30; common organic solvents, greatest in methanol and tetrahydrofuran): soluble in common organic solvents
solubility (Solubility of PT-30; fasted-state simulated intestinal fluid, fassif): ~700 µg/mL (≈ 1600 µM)
solubility (Solubility of PT-30; fed-state simulated intestinal fluid, fessif): ~700 µg/mL (≈ 1600 µM)
solubility (Solubility of PT-30; simulated gastric fluid): < 100 µg/mL
antifibrotic efficacy [6]: demonstrated antifibrotic efficacy
antifibrotic efficacy [7]: demonstrated antifibrotic efficacy
antifibrotic efficacy in this model [2]: demonstrated antifibrotic efficacy

CC1CCC2C(C)C(OC(=O)N3CC(C)(C(=O)O)C3)OC3OC4(C)CCC1C32OO4 (centres unmarked) [PT-25, DHA 3-carboxy-3-methylazetidine-1-carboxylate]
IV AUC0-last ([1]; IV, plasma): 2200 ng·h/mL
IV Clearance ([1]; IV, plasma): 74 mL/min/kg
IV T1/2 ([1]; IV, plasma): 16.2 min
IV VD,ss ([1]; IV, plasma): 1.3 L/kg
PO Bioavailability ([1]; PO): 17%
PO AUC0-last ([1]; PO, plasma): 3700 ng·h/mL
PO T1/2 ([1]; PO, plasma): 113 min

CC1CCC2C(C)C(OC(=O)N3CC(O)C3)OC3OC4(C)CCC1C32OO4 (centres unmarked) [PT-13, DHA 3-hydroxyazetidine-1-carboxylate]
IV AUC0-last ([1]; IV, plasma): 2200 ng·h/mL
IV Clearance ([1]; IV, plasma): 76 mL/min/kg
IV T1/2 ([1]; IV, plasma): 7.2 min
IV VD,ss ([1]; IV, plasma): 0.9 L/kg
PO Bioavailability ([1]; PO): 64%
PO AUC0-last ([1]; PO, plasma): 14100 ng·h/mL
PO T1/2 ([1]; PO, plasma): 41.4 min
IC50 [2]: 2600 nM

CC1CCC2C(C)C(OC(=O)N3CC(C)(O)C3)OC3OC4(C)CCC1C32OO4 (centres unmarked) [PT-14, DHA 3-hydroxy-3-methylazetidine-1-carboxylate]
activity in HEK Blue-TLR4 reporter assay (inhibition of MD2 signaling pathway) [3]: active
IV AUC0-last ([1]; IV, plasma): 2200 ng·h/mL
IV Clearance ([1]; IV, plasma): 75 mL/min/kg
IV T1/2 ([1]; IV, plasma): 10.8 min
IV VD,ss ([1]; IV, plasma): 1.1 L/kg
PO Bioavailability ([1]; PO): 92%
PO AUC0-last ([1]; PO, plasma): 20500 ng·h/mL
PO T1/2 ([1]; PO, plasma): 39.6 min
IC50 [2]: 570 nM

CC(=O)CC(c1ccccc1)c1c(O)c2ccccc2oc1=O (centres unmarked) [warfarin]
recovery (in vitro; human): 91.1%
fraction unbound (in vitro; human): 0.003
recovery (in vitro; mouse): 94.5%
fraction unbound (in vitro; mouse): 0.007

CC1CCC2C(C)C(OC(=O)N3CC(C)(C(=O)N(C)C)C3)OC3OC4(C)CCC1C32OO4 (centres unmarked) [PT-29, DHA 3-methyl-3-(dimethylcarbamoyl)azetidine-1-carboxylate]
IV AUC0-last ([1]; IV, plasma): 2000 ng·h/mL
IV Clearance ([1]; IV, plasma): 82 mL/min/kg
IV T1/2 ([1]; IV, plasma): 7.8 min
IV VD,ss ([1]; IV, plasma): 0.9 L/kg
PO Bioavailability ([1]; PO): 34%
PO AUC0-last ([1]; PO, plasma): 6800 ng·h/mL
PO T1/2 ([1]; PO, plasma): 64.8 min
